Measured values published in patent US20230024521A1, “JAK INHIBITORS” (Vimalan Biosciences, Inc., priority 2019, published 2023).
Read-outs that look alike come from different tables or passages of the source.

Assays:
[1] = test system: JAK1/JAK3: IL-2 stimulated STAT5 phosphorylation; assay: JAK1/JAK3: IL-2 stimulated STAT5 phosphorylation in PBMCs; format: cell-based, human; details: PBMC
Description: Example B: JAK1/JAK3: IL-2 Stimulated STAT5 Phosphorylation in PBMCs
Human PBMCs: (Precision Biomedicine)
Thaw as per instructions. Thaw frozen PBMCs in 37° C. water bath. Transfer cell suspension to 9 mL of pre-warmed complete media (RPMI+10% FBS+L-Glu+Pen/Strep). Centrifuge at 400×g for 5 min and wash cells with 10 mL of complete media. Resuspend pellet for a cell-count of 3×10^6 cells/mL
Seed cells into 96-deep well at 80 uL/well based on experimental plate layout. Add 10 μL of (10× conc.) of different concentrations of compounds to all wells except controls (unstimulated) and mix it with 200 uL multichannel pipet. Add 10 uL of complete RPMI media with same % DMSO in controls. For dilution of compounds and dilution range please refer to appendix. Incubate in 5% CO2 incubator for 1 hour at 37° C. Add 10 μL of (10× conc.) IL-2 (final conc. 50 ng/mL) to each well except unstimulated and unstained controls and incubate further for 20 minutes in water bath at 37° C.
Add 900 μL of prewarmed 1× Fix/Lyse solution (Appendix) and mix it properly using 1000 μL multichannel pipet; incubate further on water bath at 37° C. for 10 minutes. Centrifuge at 800×g for 5 minutes, remove 900 uL of supernatant, and add 1000 μL of freshly prepared wash buffer or 1× PBS. Centrifuge at 800×g for 5 minutes, remove 900 μL of supernatant, and resuspend the pellet in remaining buffer.
Disrupt the pellet by gentle tapping and add 1000 μL of ice cold BD Phosflow Perm Buffer III and incubate further on ice for 30 minutes. Centrifuge at 800×g for 5 minutes. Wash two more times with 1000 μL of BD Stain buffer, remove supernatant except 100 uL of buffer after the last wash.
Disrupt the pellet by gentle tapping, add 100 uL of stain buffer and 5 μL of pSTAT5_Alex488 […] in all appropriate wells and mix properly using 200 μL multichannel pipet. Incubate plate overnight at […]. Add 900 μL of BD stain buffer and centrifuge at 800×g for 5 minutes. Wash one additional time with 1000 μL of buffer. Finally resuspend the pellet in 300 uL of BD stain buffer.
Transfer the cells to 96-well v-bottom plate and acquire the cells in Beckman Coulter Cytoflex. Acquiring cells in Flow Cytometer: Keep the threshold value to 250. Acquire at least 8,000-10,000 cells.
RPMI 1640 Complete Medium: RPMI 1640 media+10% FBS.
Cytokine dilution: 1) IL-2 Stock at 100 ug/mL. Prepare a 0.5 ug/mL dilution by adding 5 uL of stock into 995 uL of cRPMI. Keep it on ice until used.
Lyse/Fix buffer preparation: Dilute 5× Lyse/Fix buffer to 1× using MQ water and keep at 37° C. until used.
BD Phosflow perm buffer III: Keep on ice/fridge

JAK1 = JAK1 (Homo sapiens, UniProt P23458); assay: JAK/TYK2 assay (Kinase Glo luminescence): Jak1 kinase assay; format: biochemical; details: 7.5 nM enzyme, 2 uM ATP, 30 uM IRS-1, 1 hr
Sequence of JAK1 (P23458 whole entry, species assumed): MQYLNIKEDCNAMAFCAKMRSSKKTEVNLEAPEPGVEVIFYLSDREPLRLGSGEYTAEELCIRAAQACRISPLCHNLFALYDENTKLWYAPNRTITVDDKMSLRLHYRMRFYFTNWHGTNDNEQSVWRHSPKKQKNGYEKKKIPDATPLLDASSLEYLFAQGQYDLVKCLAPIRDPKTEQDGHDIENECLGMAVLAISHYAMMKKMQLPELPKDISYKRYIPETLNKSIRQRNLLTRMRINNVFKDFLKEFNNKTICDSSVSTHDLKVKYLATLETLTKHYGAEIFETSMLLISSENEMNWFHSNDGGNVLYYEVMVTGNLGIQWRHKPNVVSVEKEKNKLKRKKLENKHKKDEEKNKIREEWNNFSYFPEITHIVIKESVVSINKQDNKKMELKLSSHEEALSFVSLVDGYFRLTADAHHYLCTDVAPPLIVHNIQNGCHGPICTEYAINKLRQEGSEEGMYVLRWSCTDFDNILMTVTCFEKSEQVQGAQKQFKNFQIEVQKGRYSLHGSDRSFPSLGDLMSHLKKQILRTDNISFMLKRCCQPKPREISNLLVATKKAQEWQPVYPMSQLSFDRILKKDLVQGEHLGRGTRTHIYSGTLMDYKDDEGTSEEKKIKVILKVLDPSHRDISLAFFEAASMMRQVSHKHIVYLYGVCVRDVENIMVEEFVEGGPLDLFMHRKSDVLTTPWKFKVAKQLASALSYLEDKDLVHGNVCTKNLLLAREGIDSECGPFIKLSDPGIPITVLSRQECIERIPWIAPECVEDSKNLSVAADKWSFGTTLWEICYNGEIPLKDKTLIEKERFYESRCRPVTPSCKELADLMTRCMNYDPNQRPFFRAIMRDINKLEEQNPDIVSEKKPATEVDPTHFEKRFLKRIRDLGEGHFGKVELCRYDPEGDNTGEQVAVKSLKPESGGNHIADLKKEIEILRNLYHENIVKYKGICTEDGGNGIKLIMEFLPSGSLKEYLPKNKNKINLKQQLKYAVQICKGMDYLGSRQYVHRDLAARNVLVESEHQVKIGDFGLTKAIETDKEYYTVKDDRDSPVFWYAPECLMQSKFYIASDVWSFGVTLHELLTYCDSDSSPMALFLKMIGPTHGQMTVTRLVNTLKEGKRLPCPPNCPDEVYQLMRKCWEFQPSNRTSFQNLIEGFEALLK
Description: Example A: JAK/TYK2 Assay 10 mM test compound stock or 1 mM control compound stock (tofocitinib, ruxolitinib or staurosporine) in DMSO was diluted to 0.4 mM in DMSO. A 3-fold series dilution was then performed in DMSO to generate 10 different compound concentrations. The assay was carried out in 384-well white plate. 0.5 μL of 40× compound DMSO solution at different concentrations was mixed with 10 uL 2× enzyme prepared in reaction buffer (20 mM HEPES, 10 mM MgCl2, 0.01% Tween, 1 mM DTT, pH 7.5). 10 uL 2× substrate mixture prepared in reaction buffer was then added to start the reaction. A short spin was done to settle down all solutions to the bottom of the plate. Final concentrations of test compound in the reaction mixture were 10000, 3333, 1111, 370, 123, 41.2, 13.7, 4.57, 1.52 and 0.51 nM, Concentrations of control compound were ten times less. Enzymatic reaction was conducted at 25° C. for 1-2 hours. 10 uL of Kinase Glo Reagents was added to stop the reaction and generate the luminescent signal which was measured using Envision. Luminescence signal was inversely related to kinase activity. […] The mixture without any compound was the positive control. [table]

[2] = human PBMCs, IL-2 50 ng/mL, pSTAT5 by flow cytometry, read-out: IL-2/J1J3/pS5: IC50 GeoMean
[3] = Homo sapiens, read-out: IL-2/J1J3/pS5: IC50 GeoMean (nM)

| IC50 [1, 2] [nM] | Compound | IC50 (JAK1) [nM] | IC50 [1, 3] [nM] |
| --- | --- | --- | --- |
| < 100 | CC[C@H](Cn1ccc2cnc(Nc3cnn(CC(N)=O)c3)nc21)C(C)C [Example 1, (S)-2-(4-((7-(2-ethyl-3-methylbutyl)-7H-pyrrolo[2,3-d]pyrimidin-2-yl)amino)-1H-pyrazol-1-yl) acetamide] | < 100 |  |
|  | CC[C@H](Cn1ccc2cnc(Nc3cnn(CC(=O)N4CCOC4=O)c3)nc21)C(C)C [Example 3, (5)-3-(2-(4-((7-(2-ethyl-3-methylbutyl)-7H-pyrrolo[2,3-d]pyrimidin-2-yl)amino)-1H-pyrazol-1-yl)acetyl) oxazolidin-2-one] | < 100 | < 100 |
| < 100 | CCC(CC)Cn1ccc2cnc(Nc3cnn(CC(N)=O)c3)nc21 [Example 7, 2-(4-((7-(2-ethylbutyl)-7H-pyrrolo[2,3-d]pyrimidin-2-yl)amino)-1H-pyrazol-1-yl) acetamide] | < 100 |  |
|  | CC[C@@H](Cn1ccc2cnc(Nc3cnn(C4CCNC4=O)c3)nc21)C(C)C (some centres unmarked) [Example 8] | < 100 | < 100 |
